This is an account of results in US20010002257A1, “Composition comprising a lipoamino acid and the constituents of a tannin-rich plant extract, and cosmetic use thereof” (priority 1997, published 2001).

The test system of one test is lipase. Put plainly: Anti-lipase test: titration of free fatty acids formed from triglycerides. The test is classed as biochemical. The method, then:
The test involves assaying the free fatty acids obtained by degradation of the triglycerides with lipase. A known amount of triglycerides (“Lipase Substrate” sold by the company Sigma), a known amount of lipase (“Enzyme Control 2E” sold by the company Sigma) and the test composition are placed together in a tube. After an incubation period of three hours at 37° C., the enzymatic reaction is stopped and the free fatty acids formed are assayed by titration with 0.05 M sodium hydroxide. The results are expressed as a percentage of inhibition of the enzyme by the composition considered, by comparing it with a control test.

Test [1] addresses T1, human leukocytic elastase (HLE) (Homo sapiens, UniProt P08246).
T1 sequence (P08246 30-267): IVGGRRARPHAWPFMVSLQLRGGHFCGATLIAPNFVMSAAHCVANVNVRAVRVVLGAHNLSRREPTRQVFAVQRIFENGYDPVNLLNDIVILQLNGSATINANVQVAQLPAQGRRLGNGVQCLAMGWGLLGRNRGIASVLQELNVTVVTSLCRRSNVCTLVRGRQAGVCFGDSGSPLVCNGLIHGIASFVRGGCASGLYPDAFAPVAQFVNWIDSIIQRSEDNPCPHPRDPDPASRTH
Put plainly: Anti-elastase test: hydrolysis of N-methoxysuccinyl-alanine-proline-valine-para-nitroanilide, spectrophotometry at 410 nm. It is filed as biochemical. The method, then:
Such a substance can be, for example, N-methoxysuccinyl-alanine-proline-valine-para-nitroanilide, a normally colourless substance which releases, by hydrolysis with human leukocytic elastase, a coloured product, para-nitroaniline, whose appearance kinetics can be monitored by spectrophotometry at 410 nm.
The reaction is carried out in a spectrophotometer thermostatically set at 25° C. and equipped with a sample changer. All of the kinetics are carried out a minimum of three times, the average and the standard deviation then being calculated for the three values obtained.
The presence of a molecule with anti-elastase activity is reflected by a limitation of the appearance of the coloured product and the anti-elastase effect can then be calculated relative to a control curve obtained in the absence or the said molecule.
A correlation thus exists between the percentage of inhibition of the appearance of the coloured product by the test compound and the percentage of inhibition of human leukocytic elastase.

For another test, the system named is Staphylococcus aureus. The experiment in a line: Minimum inhibitory concentration at pH 5 on growth of Staphylococcus aureus. It is filed as cell-based. As to conditions: Staph. Aureus, pH 5, product alone. The procedure: (§1) a) The minimum inhibitory concentration, at pH 5, of composition according to the invention on the growth of the strains below was determined:
(§2) b) The minimum inhibitory concentration, at pH 5, on the growth of the same strains for an octanoylglycine+zinc gluconate combination was determined.

The test system of a further test is Propionibacterium acnes. The experiment in a line: Minimum inhibitory concentration at pH 5 on growth of Propionibacterium acnes. As to conditions: P. acnes, pH 5, product alone. The test is classed as cell-based. The method, then: as §1, §2
For another test, the system named is Staphylococcus epidermis. The experiment in a line: Minimum inhibitory concentration at pH 5 on growth of Staphylococcus epidermis. The test is classed as cell-based. As to conditions: Staph. Epidermis, pH 5, product alone. The method, then: as §1, §2

Regarding `CCCCCCCC(=O)NCC(=O)O` [octanoylglycine], the “percentage of inhibition of lipase” value in the test on lipase (1.6% octanoylglycine, 3 hours at 37° C.) worked out at 44%. The “% inhibition of elastase” value in test [1] (0.625% octanoylglycine alone) was determined as 5%. For the same compound, the “inhibitory activity on elastase (in words)” value in test [1] (at the concentrations tested) is on record as “no inhibitory activity”. Besides, the minimum inhibitory concentration in the test on Staphylococcus aureus is recorded as 0.25%; in the test on Propionibacterium acnes it was 0.5%; with Staphylococcus epidermis, 0.20%.
In the case of zinc gluconate, in the test with lipase (0.13% solution of zinc gluconate, same operating conditions), the “percentage of inhibition of lipase” value is on record as 40%. Besides, the minimum inhibitory concentration with Staphylococcus aureus is listed as 0.5%; in the test on Propionibacterium acnes it was 1%; with Staphylococcus epidermis, 10.5%.
